Tests used:
Type in all cases: in vivo
[1] = tested on: goosegrass (Eleusine indica); assay: Test C preemergence, goosegrass; details: 0 is no effect, 100 is complete control
From the text: (§1) Seeds of plant species selected from blackgrass (Alopecurus myosuroides), corn (Zea mays), foxtail, giant (giant foxtail, Setaria faberi), goosegrass (Eleusine indica), kochia (Bassia scoparia), oat, wild (wild oat, Avena fatua), pigweed, palmer (palmer amaranth, Amaranthus palmeri), ragweed (common ragweed, Ambrosia artemisiifolia), ryegrass, Italian (Italian ryegrass, Lolium multiflorum), soybean (Glycine max) and wheat (Triticum aestivum) were planted into a blend of loam soil and sand and treated preemergence with a directed soil spray using test chemicals formulated in a non-phytotoxic solvent mixture which included a surfactant.
(§2) At the same time, plants selected from these crop and weed species and also galium (catchweed bedstraw, Galium aparine) and horseweed (Erigeron canadensis) were planted in pots containing the same blend of loam soil and sand and treated with postemergence applications of test chemicals formulated in the same manner. Plants ranged in height from 2 to 10 cm and were in the one- to two-leaf stage for the postemergence treatment. Treated plants and untreated controls were maintained in a greenhouse for 10 or 12 days, after which time all treated plants were compared to untreated controls and visually evaluated for injury. Plant response ratings, summarized in Table A, are based on a 0 to 100 scale where 0 is no effect and 100 is complete control. A dash (-) response means no test result.

soybean (Glycine max) [2] = assay: Test C postemergence, soybean; details: visual injury, 0 to 100 scale (0 no effect, 100 complete control)
From the text: as §1, §2

[3] = tested on: pigweed, palmer (palmer amaranth, Amaranthus palmeri); assay: Test C preemergence, palmer amaranth; details: 0 is no effect, 100 is complete control
From the text: as §1, §2

[4] = tested on: wheat (Triticum aestivum); assay: Test C postemergence, wheat; details: visual injury, 0 to 100 scale (0 no effect, 100 complete control)
From the text: as §1, §2

[5] = tested on: barnyardgrass (Echinochloa crusgalli); assay: Test D flooded paddy test, barnyardgrass; design: key: 0 = no effect, 100 = complete control; details: 250 g ai/ha, Flood; applied to paddy water at 2-leaf stage; visual rating after 13 days; scale 0 (no effect) to 100 (complete control)
Description: (§3) Plant species in the flooded paddy test selected from barnyardgrass (Echinochloa crusgalli), ducksalad (Heteranthera limosa), rice (Oryza sativa), and sedge, umbrella (small-flower umbrella sedge, Cyperus difformis) were grown to the 2-leaf stage for testing. At time of treatment, test pots were flooded to 3 cm above the soil surface, treated by application of test compounds directly to the paddy water, and then maintained at that water depth for the duration of the test. Treated plants and controls were maintained in a greenhouse for 13 days, after which time all species were compared to controls and visually evaluated. Plant response ratings, summarized in Table B, are based on a scale of 0 to 100 where 0 is no effect and 100 is complete control. A dash (-) response means no test result.

soybean (Glycine max) [6] = assay: Test C preemergence, soybean; details: 0 is no effect, 100 is complete control
From the text: as §1, §2

[7] = tested on: galium (catchweed bedstraw, Galium aparine); assay: Test C postemergence, galium; details: visual injury, 0 to 100 scale (0 no effect, 100 complete control)
From the text: as §1, §2

[8] = tested on: foxtail, giant (giant foxtail, Setaria faberi); assay: Test C postemergence, giant foxtail; details: visual injury, 0 to 100 scale (0 no effect, 100 complete control)
From the text: as §1, §2

[9] = tested on: ragweed (common ragweed, Ambrosia artemisiifolia); assay: Test C postemergence, ragweed; details: visual injury, 0 to 100 scale (0 no effect, 100 complete control)
From the text: as §1, §2

kochia (Bassia scoparia) [10] = assay: Test C postemergence, kochia; details: visual injury, 0 to 100 scale (0 no effect, 100 complete control)
From the text: as §1, §2

[11] = tested on: ryegrass, Italian (Italian ryegrass, Lolium multiflorum); assay: Test C postemergence, Italian ryegrass; details: visual injury, 0 to 100 scale (0 no effect, 100 complete control)
From the text: as §1, §2

[12] = tested on: oat, wild (wild oat, Avena fatua); assay: Test C preemergence, wild oat; details: 0 is no effect, 100 is complete control
From the text: as §1, §2

rice (Oryza sativa) = assay: Test D flooded paddy test, rice; design: key: 0 = no effect, 100 = complete control; details: 250 g ai/ha, Flood; applied to paddy water at 2-leaf stage; visual rating after 13 days; scale 0 (no effect) to 100 (complete control)
Description: as §3

[13] = tested on: goosegrass (Eleusine indica); assay: Test C postemergence, goosegrass; details: visual injury, 0 to 100 scale (0 no effect, 100 complete control)
From the text: as §1, §2

[14] = tested on: pigweed, palmer (palmer amaranth, Amaranthus palmeri); assay: Test C postemergence, palmer amaranth; details: visual injury, 0 to 100 scale (0 no effect, 100 complete control)
From the text: as §1, §2

corn (Zea mays) [15] = assay: Test C preemergence, corn; details: 0 is no effect, 100 is complete control
From the text: as §1, §2

[16] = tested on: ducksalad (Heteranthera limosa); assay: Test D flooded paddy test, ducksalad; design: key: 0 = no effect, 100 = complete control; details: 250 g ai/ha, Flood; applied to paddy water at 2-leaf stage; visual rating after 13 days; scale 0 (no effect) to 100 (complete control)
Description: as §3

[17] = tested on: ryegrass, Italian (Italian ryegrass, Lolium multiflorum); assay: Test C preemergence, Italian ryegrass; details: 0 is no effect, 100 is complete control
From the text: as §1, §2

kochia (Bassia scoparia) [18] = assay: Test C preemergence, kochia; details: 0 is no effect, 100 is complete control
From the text: as §1, §2

[19] = tested on: foxtail, giant (giant foxtail, Setaria faberi); assay: Test C preemergence, giant foxtail; details: 0 is no effect, 100 is complete control
From the text: as §1, §2

[20] = tested on: wheat (Triticum aestivum); assay: Test C preemergence, wheat; details: 0 is no effect, 100 is complete control
From the text: as §1, §2

[21] = tested on: horseweed (Erigeron canadensis); assay: Test C postemergence, horseweed; details: visual injury, 0 to 100 scale (0 no effect, 100 complete control)
From the text: as §1, §2

[22] = tested on: sedge, umbrella (small-flower umbrella sedge, Cyperus difformis); assay: Test D flooded paddy test, umbrella sedge; design: key: 0 = no effect, 100 = complete control; details: 250 g ai/ha, Flood; applied to paddy water at 2-leaf stage; visual rating after 13 days; scale 0 (no effect) to 100 (complete control)
Description: as §3

[23] = tested on: ragweed (common ragweed, Ambrosia artemisiifolia); assay: Test C preemergence, ragweed; details: 0 is no effect, 100 is complete control
From the text: as §1, §2

[24] = tested on: blackgrass (Alopecurus myosuroides); assay: Test C postemergence, blackgrass; details: visual injury, 0 to 100 scale (0 no effect, 100 complete control)
From the text: as §1, §2

corn (Zea mays) [25] = assay: Test C postemergence, corn; details: visual injury, 0 to 100 scale (0 no effect, 100 complete control)
From the text: as §1, §2

[26] = tested on: oat, wild (wild oat, Avena fatua); assay: Test C postemergence, wild oat; details: visual injury, 0 to 100 scale (0 no effect, 100 complete control)
From the text: as §1, §2

Cc1c(N2CCC(OC3CCC3)C2=O)cc(N(COC(=O)C(C)(C)C)S(=O)(=O)C(F)(F)F)c(C)c1C (centres unmarked) [Compound 51]
85: Plant response rating, Ducksalad [16]
10: Plant response rating, Rice (rice (Oryza sativa)) | Pigweed, Palmer plant response rating ([14]; 31 g ai/ha Postemergence) | Plant response rating (0 to 100 scale), Foxtail, Giant ([19]; 31 g ai/ha Preemergence) | Plant response rating (0 to 100 scale), Wheat ([20]; 31 g ai/ha Preemergence) | Blackgrass plant response rating ([24]; 31 g ai/ha Postemergence)
20: Plant response rating (0 to 100 scale), Pigweed, Palmer ([3]; 31 g ai/ha Preemergence) | Wheat plant response rating ([4]; 31 g ai/ha Postemergence) | Ryegrass, Italian plant response rating ([11]; 31 g ai/ha Postemergence) | Plant response rating (0 to 100 scale), Oat, Wild ([12]; 31 g ai/ha Preemergence) | Goosegrass plant response rating ([13]; 125 g ai/ha Postemergence) | Blackgrass plant response rating ([24]; 125 g ai/ha Postemergence)
50: Ryegrass, Italian plant response rating ([11]; 125 g ai/ha Postemergence) | Plant response rating (0 to 100 scale), Oat, Wild ([12]; 125 g ai/ha Preemergence)
60: Soybean plant response rating (soybean (Glycine max) [2]; 125 g ai/ha Postemergence) | Plant response rating (0 to 100 scale), Pigweed, Palmer ([3]; 125 g ai/ha Preemergence) | Galium plant response rating ([7]; 31 g ai/ha Postemergence) | Ragweed plant response rating ([9]; 31 g ai/ha Postemergence) | Pigweed, Palmer plant response rating ([14]; 125 g ai/ha Postemergence) | Plant response rating (0 to 100 scale), Wheat ([20]; 125 g ai/ha Preemergence) | Horseweed plant response rating ([21]; 31 g ai/ha Postemergence) | Corn plant response rating (corn (Zea mays) [25]; 125 g ai/ha Postemergence)
0: Plant response rating (0 to 100 scale), Goosegrass ([1]; 31 g ai/ha Preemergence) | Plant response rating (0 to 100 scale), Soybean (soybean (Glycine max) [6]; 31 g ai/ha Preemergence) | Foxtail, Giant plant response rating ([8]; 31 g ai/ha Postemergence) | Goosegrass plant response rating ([13]; 31 g ai/ha Postemergence) | Plant response rating (0 to 100 scale), Corn (corn (Zea mays) [15]; 31 g ai/ha Preemergence) | Plant response rating (0 to 100 scale), Ragweed ([23]; 31 g ai/ha Preemergence) | Corn plant response rating (corn (Zea mays) [25]; 31 g ai/ha Postemergence) | Oat, Wild plant response rating ([26]; 31 g ai/ha Postemergence)
40: Foxtail, Giant plant response rating ([8]; 125 g ai/ha Postemergence) | Plant response rating (0 to 100 scale), Corn (corn (Zea mays) [15]; 125 g ai/ha Preemergence) | Plant response rating (0 to 100 scale), Ryegrass, Italian ([17]; 31 g ai/ha Preemergence)
80: Ragweed plant response rating ([9]; 125 g ai/ha Postemergence) | Plant response rating (0 to 100 scale), Kochia (kochia (Bassia scoparia) [18]; 125 g ai/ha Preemergence)
30: Soybean plant response rating (soybean (Glycine max) [2]; 31 g ai/ha Postemergence) | Plant response rating (0 to 100 scale), Soybean (soybean (Glycine max) [6]; 125 g ai/ha Preemergence) | Kochia plant response rating (kochia (Bassia scoparia) [10]; 31 g ai/ha Postemergence) | Plant response rating (0 to 100 scale), Kochia (kochia (Bassia scoparia) [18]; 31 g ai/ha Preemergence) | Oat, Wild plant response rating ([26]; 125 g ai/ha Postemergence)
90: Plant response rating (0 to 100 scale), Goosegrass ([1]; 125 g ai/ha Preemergence) | Galium plant response rating ([7]; 125 g ai/ha Postemergence) | Plant response rating (0 to 100 scale), Foxtail, Giant ([19]; 125 g ai/ha Preemergence) | Horseweed plant response rating ([21]; 125 g ai/ha Postemergence) | Plant response rating, Sedge, Umbrella [22]
100: Plant response rating, Barnyardgrass [5] | Plant response rating (0 to 100 scale), Ryegrass, Italian ([17]; 125 g ai/ha Preemergence)
70: Wheat plant response rating ([4]; 125 g ai/ha Postemergence) | Kochia plant response rating (kochia (Bassia scoparia) [10]; 125 g ai/ha Postemergence) | Plant response rating (0 to 100 scale), Ragweed ([23]; 125 g ai/ha Preemergence)

— US20240158348A1, “HERBICIDAL CYCLIC AMIDES N-SUBSTITUTED WITH A HALOALKYLSULFONYLANILIDE GROUP” (FMC Corporation, priority 2021, published 2024)
